Measurements as given in ChEMBL document CHEMBL6103537 (J Med Chem, 2025).
Active and inactive are the calls of the source. The rule behind the calls is not given here.

Tests used:
[1] = Stability in monkey plasma assessed as parent compound remaining measured at 15 mins by LC-MS/MS analysis; assay type: ADME, cell-free, Macaca mulatta; conditions: rhesus monkey, read-out: Stability
[2] = Metabolic stability in rat liver microsome assessed as parent compound remaining measured at 5 mins in presence of NADPH by LC-MS/MS analysis; assay type: ADME; conditions: liver microsomes, read-out: Stability
[3] = Metabolic stability in monkey liver microsome assessed as parent compound remaining measured at 5 mins in presence of NADPH by LC-MS/MS analysis; assay type: ADME, Macaca mulatta; conditions: rhesus monkey, liver microsomes, read-out: Stability
[4] = biological target: T1, Protein cereblon/Signal transducer and transcription activator 6 (Mus musculus) (UniProt P52633+Q8C7D2); assay: In vivo PROTAC activity at STAT6/CRBN in BALB/c mouse assessed as reduction in STAT6 level in liver at 200 mg/kg, ip measured at 2 to 24 hrs by Western blot analysis; assay type: functional, organism-based; design: scale not given: the % may be the effect or the level left; conditions: time 2-24 hrs
[5] = biological target: T2, Protein cereblon/Signal transducer and activator of transcription 6 (Homo sapiens, UniProt P42226+Q96SW2); assay: PROTAC activity at STAT6 at Y641 residue/CRBN in human L-1236 cells assessed as reduction in STAT6 level incubated for 24 hrs by Western blot analysis; assay type: cell-based; conditions: dose 10.0 µM
PBMC = assay: Downregulation of STAT4 level in human PBMC cells at 5 uM incubated for 18 hrs by Western blot analysis relative to control; assay type: functional, cell-based
[6] = biological target: T2, Protein cereblon/Signal transducer and activator of transcription 6; assay: PROTAC activity at STAT6/CRBN in human L-1236 cells assessed as reduction in STAT6 level incubated for 24 hrs by Western blot analysis; assay type: cell-based; conditions: dose 10.0 µM
[7] = biological target: T1, Protein cereblon/Signal transducer and transcription activator 6 (Mus musculus); assay: In vivo PROTAC activity at STAT6/CRBN in BALB/c mouse assessed as reduction in STAT6 level in lung at 200 mg/kg, ip measured at 24 hrs by Western blot analysis; assay type: functional, organism-based; design: scale not given: the % may be the effect or the level left
[8] = biological target: T3, Protein cereblon/Signal transducer and activator of transcription 2 (Homo sapiens) (UniProt Q96SW2+P52630); assay: PROTAC activity at STAT2/CRBN in human MV4-11 cells assessed as reduction in STAT2 level at 2 uM incubated for 12 hrs by Western blot analysis relative to control; assay type: cell-based
[9] = Stability in mouse plasma assessed as parent compound remaining measured at 15 mins by LC-MS/MS analysis; assay type: ADME, cell-free; conditions: read-out: Stability
[10] = Metabolic stability in rat liver microsome assessed as parent compound remaining measured at 15 mins in presence of NADPH by LC-MS/MS analysis; assay type: ADME; conditions: liver microsomes, read-out: Stability
[11] = biological target: T2, Protein cereblon/Signal transducer and activator of transcription 6; assay: PROTAC activity at STAT6/CRBN in human MV4-11 cells assessed as reduction in STAT6 level at 2 uM measured upto 1200 mins in presence of AK-068 by HiBiT bioluminescence assay; assay type: cell-based
[12] = Metabolic stability in rat liver microsome assessed as parent compound remaining measured at 45 mins in presence of NADPH by LC-MS/MS analysis; assay type: ADME; conditions: liver microsomes, read-out: Stability
[13] = Metabolic stability in mouse liver microsome assessed as parent compound remaining measured at 30 mins in presence of NADPH by LC-MS/MS analysis; assay type: ADME; conditions: liver microsomes, read-out: Stability
[14] = biological target: T4, Protein cereblon/Signal transducer and activator of transcription 5A/Signal transducer and activator of transcription 5B (Homo sapiens) (UniProt P42229+P51692+Q96SW2); assay: PROTAC activity at STAT5 at residue Y694/CRBN in human MV4-11 cells assessed as reduction in STAT5 level at upto 10 uM incubated for 12 hrs by Western blot analysis; assay type: cell-based
[15] = biological target: T4, Protein cereblon/Signal transducer and activator of transcription 5A/Signal transducer and activator of transcription 5B (Homo sapiens); assay: PROTAC activity at STAT5/CRBN in human PBMC cells assessed as reduction in STAT5 level at 10 uM incubated for 18 hrs by Western blot analysis relative to control; assay type: cell-based
[16] = biological target: Protein cereblon/Zinc finger protein Helios (Homo sapiens) (UniProt Q96SW2+Q9UKS7); assay: PROTAC activity at CRBN/IKZF2 in human Jurkat cells assessed as degradation of IKZF2 protein at 0.01 to 10 uM incubated for 20 hrs by Western blotting analysis; assay type: cell-based; conditions: dose 0.01-10 µM
[17] = Stability in rat plasma assessed as parent compound remaining measured at 5 mins by LC-MS/MS analysis; assay type: ADME, cell-free; conditions: read-out: Stability
[18] = Stability in monkey plasma assessed as parent compound remaining measured at 30 mins by LC-MS/MS analysis; assay type: ADME, cell-free, Macaca mulatta; conditions: rhesus monkey, read-out: Stability
[19] = biological target: Protein cereblon/Signal transducer and activator of transcription 3 (Homo sapiens) (UniProt P40763+Q96SW2); assay: PROTAC activity at STAT3/CRBN in human L-1236 cells assessed as reduction in STAT3 level at 10 uM incubated for 24 hrs by Western blot analysis; assay type: cell-based
[20] = biological target: T3, Protein cereblon/Signal transducer and activator of transcription 2 (Homo sapiens); assay: PROTAC activity at STAT2/CRBN in human L-1236 cells assessed as reduction in STAT2 level at 10 uM incubated for 24 hrs by Western blot analysis; assay type: cell-based
[21] = Metabolic stability in monkey liver microsome assessed as parent compound remaining measured at 15 mins in presence of NADPH by LC-MS/MS analysis; assay type: ADME, Macaca mulatta; conditions: rhesus monkey, liver microsomes, read-out: Stability
[22] = Metabolic stability in human liver microsome assessed as parent compound remaining measured at 5 mins in presence of NADPH by LC-MS/MS analysis; assay type: ADME; conditions: liver microsomes, read-out: Stability
[23] = biological target: T5, Protein cereblon/Signal transducer and activator of transcription 4 (Homo sapiens) (UniProt Q96SW2+Q14765); assay: PROTAC activity at STAT4/CRBN in human MV4-11 cells assessed as reduction in STAT4 level at 10 uM incubated for 12 hrs by Western blot analysis; assay type: cell-based
[24] = Metabolic stability in dog liver microsome assessed as parent compound remaining measured at 45 mins in presence of NADPH by LC-MS/MS analysis; assay type: ADME, Canis lupus familiaris; conditions: liver microsomes, read-out: Stability
[25] = Downregulation of KRT1 level in human PBMC cells at 5 uM incubated for 18 hrs by Western blot analysis relative to control; assay type: functional
[26] = Metabolic stability in mouse liver microsome assessed as parent compound remaining measured at 45 mins in presence of NADPH by LC-MS/MS analysis; assay type: ADME; conditions: liver microsomes, read-out: Stability
[27] = Metabolic stability in human liver microsome assessed as half life measured upto 60 mins in presence of NADPH by LC-MS/MS analysis; assay type: ADME; conditions: liver microsomes
[28] = Stability in human plasma assessed as half life measured upto 60 mins by LC-MS/MS analysis; assay type: ADME, cell-free
[29] = biological target: T5, Protein cereblon/Signal transducer and activator of transcription 4 (Homo sapiens); assay: PROTAC activity at STAT4/CRBN in human PBMC cells assessed as reduction in STAT4 level at 10 uM incubated for 18 hrs by Western blot analysis relative to control; assay type: cell-based
[30] = biological target: T3, Protein cereblon/Signal transducer and activator of transcription 2 (Homo sapiens); assay: PROTAC activity at STAT2/CRBN in human MV4-11 cells assessed as reduction in STAT2 level at 10 uM incubated for 12 hrs by Western blot analysis relative to control; assay type: cell-based
[31] = Stability in dog plasma assessed as half life measured upto 60 mins by LC-MS/MS analysis; assay type: ADME, cell-free, Canis lupus familiaris
[32] = biological target: Protein cereblon/Eukaryotic peptide chain release factor GTP-binding subunit ERF3A (Homo sapiens) (UniProt Q96SW2+P15170); assay: PROTAC activity at CRBN/GSPT1 in human Jurkat cells assessed as degradation of GSPT1 protein at 0.01 to 10 uM incubated for 20 hrs by Western blotting analysis; assay type: cell-based; conditions: dose 0.01-10 µM

What does the source list for `CC(C)(C)[C@H](NC(=O)c1cc2cc(C(F)(F)P(=O)(O)O)ccc2s1)C(=O)N1C[C@@H](OCCCCCC#Cc2cccc3c2CN(C2CCC(=O)NC2=O)C3=O)C[C@H]1C(=O)N1CCO[C@H](c2ccccc2)C1` (stereo partly drawn)?
remaining at 0.25 h [1]: 111%; remaining at 5 min [2]: 99%; remaining at 5 min [3]: 95%; Activity [4]: > 90%; Activity [5]: Dose-dependent-effect; Activity (PBMC): inactive; Activity [6]: Dose-dependent-effect; Activity [7]: > 70%; Emax [8]: < 40%; remaining at 0.25 h [9]: 100%; remaining at 0.25 h [10]: 98%; Activity [11]: Active; remaining at 0.75 h [12]: 90%; remaining at 0.5 h [13]: 94%; Activity [14]: No effect; Activity [15]: No effect; Activity [16]: No effect; remaining at 5 min [17]: 86%; remaining at 0.5 h [18]: 91%; Activity [19]: No effect; Activity [20]: No effect; remaining at 0.25 h [21]: 83%; remaining at 5 min [22]: 94%; Activity [23]: inactive; remaining at 0.75 h [24]: 93%; Activity [25]: 59%; remaining at 0.75 h [26]: 92%; half-life [27]: > 120 min; half-life [28]: > 120 min; Activity [29]: No effect; Emax [30]: < 40%; half-life [31]: > 120 min; Activity [32]: No effect
